Results on two compounds are retold here after patent US8877716B2, “Peptide derivatives, preparation and uses thereof” (Vect-Horus, priority 2010, dated 2014).

The nature of one series: in vitro. The settings on record: blood.
For series [1] the following is noted: Demeule et al., 2008; cited from earlier work.

The term half-life denotes the time in which the quantity being followed falls by half. A low value points to fast loss.

Regarding `CSCC[C@@H]1NC(=O)[C@H](N)CSSC[C@@H](C(=O)O)NC(=O)CNC(=O)[C@H](CCCNC(=N)N)NC(=O)[C@H](CC(C)C)NC(=O)[C@H](CCCNC(=N)N)NC(=O)[C@@H]2CCCN2C1=O` [SEQ ID NO: 17], the half-life in “in vitro” was 3 h. Regarding transferrin [Tf], the “Kin (cerebral transfer coefficient)” value in series [1] is 0.0003 mL/s/g.
